Reference: patent publication US20240376094A2, “SELECTIVE BCL-XL PROTAC COMPOUNDS AND METHODS OF USE” (Les Laboratoires Servier, priority 2021, published 2024)

Key:
Format in all cases: cell-based
COR-L105 = assay: CellTiter-Glo proliferation assay, COR-L105; settings: Homo sapiens, COR-L105, 120 h, COR-L105, 5 days; for Emax: read-out: COR-L105 Span (max)
Summary of the method: (§1)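 Both lines grown in RPMI-1640 + 10% FBS. COR-L105 plated flat at 1,000 cells/well overnight; NCI-H1650 grown as spheroids, 3,000 cells/well, 72 h. Compounds at 0.508 nM-10 μM final for 5 days, 37° C. ATP read by CellTiter-Glo (3D version for spheroids); IC50 from variable-slope fit normalized to untreated cells.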

NCI-H1650 = assay: CellTiter-Glo 3D proliferation assay, NCI-H1650 spheroids; settings: Homo sapiens, NCI-H1650, 120 h, 5 days; for Emax: read-out: NCI-H1650 Span (Amax)
Summary of the method: as §1

endogenous BCL-xL = target: T1, endogenous BCL-xL (Homo sapiens, UniProt Q07817); assay: Degradation of endogenous BCL-xL in COR-L105 (ProteinSimple Jess); settings: COR-L105, 24 h, COR-L105, dose 300 nM, read-out: % BCL-xL vs. Untreated, COR-L105
T1 construct: endogenous in cells; host or cells: COR-L105 (ECACC No. 92031918); NCI-H1650 (ATCC No. CRL-5883)
Description: The BCL-xL degrader low molecular weight compounds were tested against two endogenous cancer cell lines: • COR-L105: ECACC No. 92031918 cultured in RPMI-1640+10% FBS • NCI-H1650: (ATCC No. CRL-5883 cultured in RPMI-1640+10% FBS
The ability of the BCL-xL degrader low molecular weight compounds to degrade endogenous BCL-xL was assessed using the ProteinSimple 2-40 kDa Jess Separation Module.
Cell lines were cultured in media that is optimal for their growth at 5% CO2, 37° C. in a tissue culture incubator. Prior to seeding for the degradation assay, the cells were split at least 2 days before the assay to ensure optimal growth density. On the day of seeding, adherent cells were lifted off tissue culture flasks using 0.25% trypsin. Cell viability and cell density were determined using a cell counter (Vi-Cell XR Cell Viability Analyzer, Beckman Coulter). Cells with higher than 85% viability were seeded for the assay.
The COR-L105 and the NCI-H1650 cell line were seeded in 6-well clear TC-treated multiple well plates (Costar® cat. #3516). Cells were seeded at a density of 2,000,000 cells per well in 2.5 mL of standard growth media. Plates were incubated at 5% CO2, 37° C. overnight in a tissue culture incubator. On the day of dosing, BCL-xL degrader low molecular weight compounds and a BCL-xL inhibitor control were prepared at 6× in standard growth media. The prepared drug treatments were then added to the cells resulting in a final concentration of 100-300 nM and a final volume of 3.0 mL per well. A control well of untreated cells was also included in the study. Each drug concentration was tested in singlet. Plates were incubated at 5% CO2, 37° C. for 24 hours in a tissue culture incubator.
After 24 hours, the adherent cells were lifted off tissue culture plates using 0.25% trypsin. Standard growth media was added to quench the trypsin and centrifuged for 5 minutes at 1500 rpm. Cell pellets were washed once with cold PBS and centrifuged for 5 minutes at 1500 rpm. Cells were then washed with 1 mL cold PBS and transferred to a 1.5 mL eppendorf tube. Cells were centrifuged for 10 minutes at ≥10,000 g at 4° C. in a benchtop mini-centrifuge. The entire supernatant was discarded and cells were resuspended thoroughly in 50 μL of RIPA lysis buffer, generated by the manufacturer's protocol (ProteinSimple, Cat. #CBS401: Lysis Kit—RIPA Buffer for Charge Assays). Lysates were incubated on ice for 30 minutes. Following incubation, lysates were spun in a benchtop mini-centrifuge for 15 minutes at full speed at 4° C. Supernatant was carefully transferred to a new eppendorf tube for downstream analysis.
Protein was quantified using a Pierce™ BCA Protein Assay Kit (ThermoFisher, cat #23225) following the manufacturer's instructions. A standard curve was prepared by adding 25 μL of each concentration of reference samples from a Pierce™ Bovine Serum Albumin Standard Pre-Diluted Set (ThermoFisher, cat #23208). Each reference sample was run in duplicate. Testing samples were prepared by diluting cell lysates 1:5 in UltraPure™ DNase/RNase-Free Distilled Water and tested in duplicates of 25 μL each. The BCA working reagent was prepared by addition of 50 parts of BCA Reagent A with 1 part of BCA Reagent B. For each testing well, 200 μL of BCA working reagent was added. The plate was incubated at 37° C. for 30 minutes. A SpectraMax M Series Multi-Mode Microplate Reader was used to measure the absorbance at 562 nm. A standard curve generated by the Pierce™ Bovine Serum Albumin Standard Pre-Diluted Set was used to normalize and calculate the BCA concentration of cell lysates. Only values that fell within the range of the standard curve were accepted for quantification.
The ProteinSimple 2-40 kDa Jess Separation Module was used to detect BCL-xL degradation in treated versus untreated lysates following the manufacturer's instructions (25-Capillary Cartridge, 8 pack, 2-40 kDa, cat #SM W012). […]

T1 sequence (Q07817 whole entry): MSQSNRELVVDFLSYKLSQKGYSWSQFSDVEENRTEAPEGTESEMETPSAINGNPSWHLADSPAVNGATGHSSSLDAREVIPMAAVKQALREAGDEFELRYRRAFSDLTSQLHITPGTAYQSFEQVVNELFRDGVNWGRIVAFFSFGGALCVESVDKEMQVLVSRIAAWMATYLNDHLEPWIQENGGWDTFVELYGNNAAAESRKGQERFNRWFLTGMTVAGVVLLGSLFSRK

Compound	IC50 (COR-L105) [nM]	Emax (COR-L105) [%]	IC50 (NCI-H1650) [nM]	Emax (NCI-H1650) [%]	remaining activity at 0.3 µM (endogenous BCL-xL) [%]
Cc1ncsc1-c1ccc(CNC(=O)[C@@H]2C[C@@H](O)CN2C(=O)[C@@H](NC(=O)C2(F)CC2)C(C)(C)C)c(OCC(=O)NCCCCCN2CCN(CC#Cc3ccc(OCCCc4sc(N5CCCc6c5nnc(Nc5nc7ccccc7s5)c6C)nc4C(=O)O)c(F)c3)CC2)c1 [Example 53, 2-(3-(benzo[d]thiazol-2-ylamino)-4-methyl-6,7-dihydropyrido [2,3-c]pyridazin-8(5H)-yl)-5-(3-(2-fluoro-4-(3-(4-(5-(2-(2-(((2S,4R)-1-((S)-2-(1-fluorocyclopropane-1-carboxamido)-3,3-dimethylbutanoyl)-4-hydroxypyrrolidine-2-carboxamido)methyl)-5-(4-methylthiazol-5-yl)phenoxy)acetamido)pentyl)piperazin-1-yl)prop-1-yn-1-yl)phenoxy)propyl)thiazole-4-carboxylic acid]	33.4	97.9	4.46	79.3	48.3
Cc1ncsc1-c1ccc([C@H](C)NC(=O)[C@@H]2C[C@@H](O)CN2C(=O)[C@@H](NC(=O)CCC(=O)N2CCN(CCOC34CC5(C)CC(C)(CC(Cn6ncc(-c7ccc(N8CCCc9c8nnc(Nc8nc%10ccccc%10s8)c9C)nc7C(=O)O)c6C)(C5)C3)C4)CC2)C(C)(C)C)cc1 [Example 49, 6-(3-(benzo[d]thiazol-2-ylamino)-4-methyl-6,7-dihydropyrido [2,3-c]pyridazin-8(5H)-yl)-3-(1-(((1r,3s,5R,7S)-3-(2-(4-(4-(((S)-1-((2S,4R)-4-hydroxy-2-(((S)-1-(4-(4-methylthiazol-5-yl)phenyl)ethyl)carbamoyl)pyrrolidin-1-yl)-3,3-dimethyl-1-oxobutan-2-yl)amino)-4-oxobutanoyl)piperazin-1-yl)ethoxy)-5,7-dimethyladamantan-1-yl)methyl)-5-methyl-1H-pyrazol-4-yl)picolinic acid]	311	92.1	44.1	89	> 90
Cc1ncsc1-c1ccc(CNC(=O)[C@@H]2C[C@@H](O)CN2C(=O)[C@@H](NC(=O)CCCCCCCCCCC(=O)N2CCN(CC#Cc3ccc(OCCCc4sc(N5CCCc6c5nnc(Nc5nc7ccccc7s5)c6C)nc4C(=O)O)c(F)c3)CC2)C(C)(C)C)c(O)c1 [Example 45, 2-(3-(benzo[d]thiazol-2-ylamino)-4-methyl-6,7-dihydropyrido [2,3-c]pyridazin-8(5H)-yl)-5-(3-(2-fluoro-4-(3-(4-(12-(((S)-1-((2S,4R)-4-hydroxy-2-((2-hydroxy-4-(4-methylthiazol-5-yl)benzyl)carbamoyl)pyrrolidin-1-yl)-3,3-dimethyl-1-oxobutan-2-yl)amino)-12-oxododecanoyl)piperazin-1-yl)prop-1-yn-1-yl)phenoxy)propyl)thiazole-4-carboxylic acid]	68.3	83	6.27	81.2	40.1
Cc1ncsc1-c1ccc(CNC(=O)[C@@H]2C[C@@H](O)CN2C(=O)[C@@H](NC(=O)C2(F)CC2)C(C)(C)C)c(OCC(=O)N(C)CCCCCN2CCN(CC#Cc3ccc(OCCCc4sc(N5CCCc6c5nnc(Nc5nc7ccccc7s5)c6C)nc4C(=O)O)c(F)c3)CC2)c1 [Example 54, 2-(3-(benzo[d]thiazol-2-ylamino)-4-methyl-6,7-dihydropyrido [2,3-c]pyridazin-8(5H)-yl)-5-(3-(2-fluoro-4-(3-(4-(5-(2-(2-(((2S,4R)-1-((S)-2-(1-fluorocyclopropane-1-carboxamido)-3,3-dimethylbutanoyl)-4-hydroxypyrrolidine-2-carboxamido)methyl)-5-(4-methylthiazol-5-yl)phenoxy)-N-methylacetamido)pentyl)piperazin-1-yl)prop-1-yn-1-yl)phenoxy)propyl)thiazole-4-carboxylic acid]	31.6	91.9	5.75	76.7	47.9
Cc1ncsc1-c1ccc(CNC(=O)[C@@H]2C[C@@H](O)CN2C(=O)[C@@H](NC(=O)C2(F)CC2)C(C)(C)C)c(OCC(=O)N2CCN(CCOC34CC5(C)CC(C)(CC(Cn6ncc(-c7ccc(N8CCCc9c8nnc(Nc8nc%10ccccc%10s8)c9C)nc7C(=O)O)c6C)(C5)C3)C4)CC2)c1 [Example 50, 6-(3-(benzo[d]thiazol-2-ylamino)-4-methyl-6,7-dihydropyrido [2,3-c]pyridazin-8(5H)-yl)-3-(1-(((1r,3s,5R,7S)-3-(2-(4-(2-(2-(((2S,4R)-1-((S)-2-(1-fluorocyclopropane-1-carboxamido)-3,3-dimethylbutanoyl)-4-hydroxypyrrolidine-2-carboxamido)methyl)-5-(4-methylthiazol-5-yl)phenoxy)acetyl)piperazin-1-yl)ethoxy)-5,7-dimethyladamantan-1-yl)methyl)-5-methyl-1H-pyrazol-4-yl)picolinic acid]	287	90.2	25.9	93.8	88
Cc1ncsc1-c1ccc([C@H](C)NC(=O)[C@@H]2C[C@@H](O)CN2C(=O)[C@@H](NC(=O)c2ccc(C(=O)N3CCN(CC#Cc4ccc(OCCCc5sc(N6CCCc7c6nnc(Nc6nc8ccccc8s6)c7C)nc5C(=O)O)c(F)c4)CC3)cc2F)C(C)(C)C)cc1 [Example 43, 2-(3-(benzo[d]thiazol-2-ylamino)-4-methyl-6,7-dihydropyrido [2,3-c]pyridazin-8(5H)-yl)-5-(3-(2-fluoro-4-(3-(4-(3-fluoro-4-(((S)-1-((2S,4R)-4-hydroxy-2-(((S)-1-(4-(4-methylthiazol-5-yl)phenyl)ethyl)carbamoyl)pyrrolidin-1-yl)-3,3-dimethyl-1-oxobutan-2-yl)carbamoyl)benzoyl)piperazin-1-yl)prop-1-yn-1-yl)phenoxy)propyl)thiazole-4-carboxylic acid]	74.8	85.9	4.22	80.3	19.9
Cc1ncsc1-c1ccc([C@H](C)NC(=O)[C@@H]2C[C@@H](O)CN2C(=O)[C@@H](NC(=O)CN(C)CC(=O)N2CCN(CC#Cc3ccc(OCCCc4sc(N5CCCc6c5nnc(Nc5nc7ccccc7s5)c6C)nc4C(=O)O)c(F)c3)CC2)C(C)(C)C)cc1 [Example 36, 2-(3-(benzo[d]thiazol-2-ylamino)-4-methyl-6,7-dihydropyrido [2,3-c]pyridazin-8(5H)-yl)-5-(3-(2-fluoro-4-(3-(4-(N-(2-(((S)-1-((2S,4R)-4-hydroxy-2-(((S)-1-(4-(4-methylthiazol-5-yl)phenyl)ethyl)carbamoyl)pyrrolidin-1-yl)-3,3-dimethyl-1-oxobutan-2-yl)amino)-2-oxoethyl)-N-methylglycyl)piperazin-1-yl)prop-1-yn-1-yl)phenoxy)propyl) thiazole-4-carboxylic acid]	296	94.1	37.3	68.3	> 90
